Laboratory results: patent US7169789B2 (Kirin Beer Kabushiki Kaisha, priority 1999, dated 2007)

Assays:
[1] = test system: activation of MAPK within vascular endothelial cells induced by VEGF stimulation; test: Inhibitory activity against activation of MAPK within vascular endothelial cells induced by VEGF stimulation; type: cell-based; details: human funicular venous vascular endothelial cells, VEGF 50 ng/ml, phosphorylated MAPK by immunoblotting
Method: Measurement of Inhibitory Activity Against Activation of MAPK Within Vascular Endothelial Cells Induced by VEGF Stimulation
Human funicular venous vascular endothelial cells (purchased from Chronetics) were cultured in an EGM-2 medium (purchased from Chronetics) within an incubator containing 5% carbon dioxide until 50 to 70% confluent, and the culture was inoculated into wells, containing the same medium, in a 96-well flat-bottom plate in an amount of 1.5×10^5 per well. After cultivation at 37° C. overnight, the medium was replaced by an EBM-2 medium containing 0.5% fetal calf serum (purchased from Chronetics), followed by cultivation for 24 hr. A solution of the test compound in dimethyl sulfoxide was added to each well, and the cultivation was continued at 37° C. for additional one hr. A human recombinant vascular endothelial growth factor (hereinafter abbreviated to “VEGF”) was added to a final concentration of 50 ng/ml, and the stimulation of cells was carried out at 37° C. for 8 min. The medium was removed, the cells were washed with phosphate buffered saline (pH 7.4), and 10 μl of a solubilization buffer (Tris buffered saline (pH 7.4) containing 1% Triton X100, 2 mM sodium orthovanadylate, and 1 mM disodium ethylenediaminetetraacetate) was then added thereto. The mixture was shaken at 4° C. for one hr to solubilize the cells. An equal amount of Tris buffered saline containing 1% sodium laurylsulfate was added to and thoroughly mixed with the solution. This solution (2 μl) was adsorbed on a PVDF filter by dot blotting, and this filter was subjected to immunoblotting with anti-tyrosine phosphorylated MAPK antibody (purchased from Daiichi Pure Chemicals).
The level of phosphorylated MAPK was quantitatively determined with a densitometer, and the percentage phosphorylated MAPK in the presence of the test compound was determined by presuming the level of phosphorylated MAPK with the addition of VEGF in the absence of the test compound to be 100% and the level of phosphorylated MAPK in the absence of the test compound and VEGF to be 0%. The test compound concentration (IC50) necessary for inhibiting 50% of the activation of MAPK was calculated based on the percentage of phosphorylated MAPK.

[2] = test system: A375 human melanoma cells; test: Karyomorphosis test; type: cell-based; details: test compound 10 μM and 1 μM, 48 hr, nuclei stained with propidium iodide
Method: A375 human melanoma cells (2×10^4) (obtained from Japanese Foundation for Cancer Research) were incolulated on a culture slide (manufactured by Falcon) and were cultured at 37° C. After the elapse of 5 hr from the initiation of the cultivation, the test compound was added to 10 μM and 1 μM, and the cultivation was continued for additional 48 hr. After the fixation of cells, 50 μg/ml propidium iodide solution containing ribonuclease (200 μg/ml) was added to stain nuclei. The stained nuclei were observed under a fluorescent microscope to analyze the nuclei for abnormality of karyomorphosis.

human KDR = molecular target: T1, human KDR (Homo sapiens, UniProt P35968); test: Inhibitory activity against KDR phosphorylation by ELISA; type: cell-based; details: NIH 3T3 cells transfected with human KDR, VEGF 100 ng/ml
T1 construct: expressed in transfected cells; host or cells: NIH 3T3 cells (Sawano A et al., Cell Growth & Differentiation 7, 213-221 (1996))
T1 sequence (P35968 20-1356): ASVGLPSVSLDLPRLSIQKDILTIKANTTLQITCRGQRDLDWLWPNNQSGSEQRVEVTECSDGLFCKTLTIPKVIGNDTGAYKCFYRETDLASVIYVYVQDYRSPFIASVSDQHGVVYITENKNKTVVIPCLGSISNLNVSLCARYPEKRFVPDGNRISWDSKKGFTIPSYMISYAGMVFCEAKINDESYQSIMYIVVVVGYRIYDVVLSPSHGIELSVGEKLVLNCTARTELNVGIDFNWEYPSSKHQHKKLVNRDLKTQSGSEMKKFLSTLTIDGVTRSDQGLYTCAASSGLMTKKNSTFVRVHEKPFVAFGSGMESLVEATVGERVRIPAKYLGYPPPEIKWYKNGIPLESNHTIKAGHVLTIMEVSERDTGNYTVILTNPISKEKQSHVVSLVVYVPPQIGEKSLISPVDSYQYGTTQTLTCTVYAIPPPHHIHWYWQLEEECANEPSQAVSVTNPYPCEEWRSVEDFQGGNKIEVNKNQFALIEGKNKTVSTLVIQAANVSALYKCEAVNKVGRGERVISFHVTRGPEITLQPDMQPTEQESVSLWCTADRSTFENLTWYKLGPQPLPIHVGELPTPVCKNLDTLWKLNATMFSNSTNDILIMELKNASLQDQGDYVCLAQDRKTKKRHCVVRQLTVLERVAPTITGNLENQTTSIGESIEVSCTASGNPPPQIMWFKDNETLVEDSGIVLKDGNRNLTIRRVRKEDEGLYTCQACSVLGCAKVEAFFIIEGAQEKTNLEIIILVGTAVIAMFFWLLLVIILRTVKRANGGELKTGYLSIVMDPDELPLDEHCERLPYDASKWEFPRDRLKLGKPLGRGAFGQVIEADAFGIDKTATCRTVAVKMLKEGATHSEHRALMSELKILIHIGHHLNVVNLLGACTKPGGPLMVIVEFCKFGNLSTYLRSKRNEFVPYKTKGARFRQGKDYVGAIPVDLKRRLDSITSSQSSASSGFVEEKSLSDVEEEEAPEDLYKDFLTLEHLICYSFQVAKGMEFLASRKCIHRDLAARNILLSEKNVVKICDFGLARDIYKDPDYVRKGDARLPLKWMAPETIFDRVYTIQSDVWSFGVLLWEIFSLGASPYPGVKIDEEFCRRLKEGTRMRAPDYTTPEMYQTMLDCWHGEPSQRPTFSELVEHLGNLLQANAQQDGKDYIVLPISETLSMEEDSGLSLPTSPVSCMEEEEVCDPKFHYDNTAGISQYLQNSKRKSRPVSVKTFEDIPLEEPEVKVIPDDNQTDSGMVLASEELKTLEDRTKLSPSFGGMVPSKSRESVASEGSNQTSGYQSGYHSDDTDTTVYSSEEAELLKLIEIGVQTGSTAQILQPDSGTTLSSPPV

Human glioma cells GL07 = test: Antitumor effect on human glioma cells (GL07) transplanted into nude mice; type: in vivo; details: Mus musculus, Glioma cell, 216 h, GL07, oral, 20 mg/kg once a day for 9 days, read-out: TGIR, % (tumor growth inhibition rate)
How it was run: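 GL07 xenografts in nude mice, grouped (n=4) at ~100 mm^3 tumor volume. Test compound 20 mg/kg p.o. or i.p. once daily for 9 days; vehicle controls. TGIR = (1−Tx/Cx)×100 from tumor volumes normalized to day-of-start volume = 1.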

Row | IC50 [1] [µM] | IC50 ([1]; Endothelial cell) [µM] | IC50 (human KDR) [µM] | SMILES | Change in morphosis [2] | inhibition in vivo at 20 mg/kg (Human glioma cells GL07) [%]
1 | 0.0085 | – | – | COc1cc2nccc(Oc3ccc(NC(=O)Nc4ccc(C)cn4)c(Cl)c3)c2cc1OC [Example 20, N-{2-Chloro-4-[(6,7-dimethoxy-4-guinolyl)oxy]phenyl}-N′-(5-methyl-2-pyridyl)urea] | (−) (the change in karyomorphosis of cells did not take place at 10 μM) | –
2 | – | 0.0041 | 0.0034 | CCCCCNC(=O)Nc1ccc(Oc2ncnc3cc(OC)c(OC)cc23)cc1Cl [Example 78, N-{2-Chloro-4-[(6,7-dimethoxy-4-quinazolinyl)oxy]phenyl}-N′-pentylurea] | – | 21
3 | – | 0.013 | 0.0027 | C=CCNC(=O)Nc1ccc(Oc2ncnc3cc(OC)c(OC)cc23)cc1Cl [Example 80, N-Allyl-N′-{2-chloro-4-[(6,7-dimethoxy-4-quinazolinyl)oxy]phenyl}urea] | – | 52
4 | – | 0.067 | 0.064 | C#CCNC(=O)Nc1ccc(Oc2ncnc3cc(OC)c(OC)cc23)cc1 [Example 69, N-{4-[(6,7-Dimethoxy-4-quinazolinyl)-oxy]phenyl}-N′-(2-propynyl)urea] | – | 26
5 | – | 0.042 | 0.15 | CCCNC(=O)Nc1ccc(Oc2ncnc3cc(OC)c(OC)cc23)cc1 [Example 64, N-{4-[(6,7-Dimethoxy-4-quinazolinyl)oxy]-phenyl}-N′-propylurea] | – | 37
6 | – | 0.0023 | 0.002 | COc1cc2ncnc(Oc3ccc(NC(=O)Nc4ccc(F)cc4)c(C)c3)c2cc1OC [Example 105, N-{4-[(6,7-Dimethoxy-4-quinazolinyl)oxy]-2-methylphenyl}-N′-(4-fluorophenyl)urea] | – | 20
7 | – | 0.45 | 0.33 | CCCCNC(=O)Nc1ccc(Oc2ncnc3cc(OC)c(OC)cc23)c(C)c1 [Example 98, N-Butyl-N′-{4-[(6,7-dimethoxy-4-quinazolinyl)oxy]-3-methylphenyl}urea] | – | 38
8 | – | 0.0102 | 0.011 | CCCNC(=O)Nc1ccc(Oc2ncnc3cc(OC)c(OC)cc23)cc1[N+](=O)[O-] [Example 107, N-{4-[(6,7-Dimethoxy-4-quinazolinyl)oxy]-2-nitrophenyl}-N′-propylurea] | – | 49
9 | – | 0.0007 | 0.0005 | COc1cc2ncnc(Oc3ccc(NC(=O)Nc4ccc(F)cc4)c(Cl)c3)c2cc1OC [Example 85, N-{2-Chloro-4-[(6,7-dimethoxy-4-quinazolinyl)oxy]phenyl}-N′-(4-fluorophenyl)urea] | – | 26
10 | – | 0.053 | 0.078 | CCCCNC(=O)Nc1ccc(Oc2ncnc3cc(OC)c(OC)cc23)cc1C [Example 103, N-Butyl-N′-{4-[(6,7-dimethoxy-4-quinazolinyl)oxy]-2-methylphenyl}urea] | – | 23
11 | – | 0.014 | 0.037 | COc1cc2ncnc(Oc3ccc(NC(=O)NCc4ccc(F)cc4F)c(F)c3)c2cc1OC [Example 93, N-(2,4-Difluorobenzyl)-N′-{4-[(6,7-dimethoxy-4-quinazolinyl)oxy]-2-fluorophenyl}urea] | – | 29

Further lines, the compound ahead of its results:

Row | SMILES | IC50 [1] [µM] | IC50 ([1]; Endothelial cell) [µM] | IC50 (human KDR) [µM] | Change in morphosis [2] | inhibition in vivo at 20 mg/kg (Human glioma cells GL07) [%]
12 | COc1ccccc1NC(=O)Nc1ccc(Oc2ccnc3cc(OCc4ccccc4)c(OC)cc23)c(C)c1C [Example 60, N-(4-{[7-(Benzyloxy)-6-methoxy-4-quinolyl]oxy}-2,3-dimethylphenyl)-N′-(2-methoxyphenyl)-urea] | – | – | – | (−) (the change in karyomorphosis of cells did not take place at 10 μM) | –
13 | COc1cc2ncnc(Oc3ccc(NC(=O)Nc4ccc(F)cc4F)c(Cl)c3)c2cc1OC [Example 61, N-{2-Chloro-4-[(6,7-dimethoxy-4-quinazolinyl)oxy]phenyl}-N′-(2,4-difluorophenyl)urea] | – | – | – | (−) (the change in karyomorphosis of cells did not take place at 10 μM) | –
14 | CCCNC(=O)Nc1ccc(Oc2ncnc3cc(OC)c(OC)cc23)c(C)c1 [Example 97, N-{4-[(6,7-Dimethoxy-4-quinazolinyl)oxy]-3′-methylphenyl}-N′-propylurea] | – | 0.518 | 0.49 | – | 48
15 | CCCCCNC(=O)Nc1ccc(Oc2ncnc3cc(OC)c(OC)cc23)cc1 [Example 66, N-{4-[(6,7-Dimethoxy-4-quinazolinyl)oxy]-phenyl}-N′-pentylurea] | – | 0.021 | 0.015 | – | 26
16 | CCC(C)NC(=O)Nc1ccc(Oc2ncnc3cc(OC)c(OC)cc23)cc1Cl (centres unmarked) [Example 79, N-(sec-Butyl)-N′-{2-chloro-4-[(6,7-dimethoxy-4-quinazolinyl)oxy]phenyl}urea] | – | 0.03 | 0.018 | – | 28
17 | CCCCNC(=O)Nc1ccc(Oc2ncnc3cc(OC)c(OC)cc23)cc1Cl [Example 77, N-Butyl-N′-{2-chloro-4-[(6,7-dimethoxy-4-quinazolinyl)oxy]phenyl}urea] | – | 0.071 | 0.006 | – | 26
18 | CCCNC(=O)Nc1cc(C)c(Oc2ccnc3cc(OC)c(OC)cc23)cc1C [Example 38, N-{4-[(6,7-Dimethoxy-4-quinolyl)oxy]-2,5-dimethylphenyl}-N′-propylurea] | – | – | – | (−) (the change in karyomorphosis of cells did not take place at 10 μM) | –
19 | CCCNC(=O)Nc1ccc(Oc2ncnc3cc(OC)c(OC)cc23)cc1C [Example 102, N-{4-[(6,7-Dimethoxy-4-quinazolinyl)oxy]-2-methylphenyl}-N′-propylurea] | – | 0.15 | 0.105 | – | 24
20 | COc1cc2nccc(Oc3ccc(NC(=O)Nc4ccc(Br)c(C)n4)c(Cl)c3)c2cc1OC [Example 15, N-(5-Bromo-6-methyl-2-pyridyl)-N′-{2-chloro-4-[(6,7-dimethoxy-4-quinolyl)oxy]phenyl}urea] | – | – | – | (−) (the change in karyomorphosis of cells did not take place at 10 μM) | –
21 | COc1cc2ncnc(Oc3ccc(NC(=O)NCc4ccccn4)cc3)c2cc1OC [Example 71, N-{4-[(6,7-Dimethoxy-4-quinazolinyl)oxy]-phenyl}-N′-(2-pyridylmethyl)urea] | – | 0.75 | 0.35 | – | 67
22 | COc1cc2ncnc(Oc3ccc(NC(=O)Nc4ccc(F)cc4F)c(F)c3)c2cc1OC [Example 94, N-(2,4-Difluorophenyl)-N′-{4-[(6,7-dimethoxy-4-quinazolinyl)oxy]-2-fluorophenyl}urea] | – | 0.0018 | 0.0023 | – | 29
23 | COc1cc2nccc(Oc3cc(C)c(NC(=O)Nc4ccc(Cl)cc4C)cc3C)c2cc1OC [Example 39, N-(4-chloro-2-methylphenyl)-N′-{4-[(6,7-dimethoxy-4-quinolyl)oxy]-2,5-dimethylphenyl}urea] | – | – | – | (−) (the change in karyomorphosis of cells did not take place at 10 μM) | –
24 | C=CCNC(=O)Nc1ccc(Oc2ncnc3cc(OC)c(OC)cc23)cc1 [Example 68, N-Allyl-N′-{4-[(6,7-Dimethoxy-4-quinazolinyl)oxy]phenyl}urea] | – | 0.045 | 0.024 | – | 57
25 | COc1cc2ncnc(Oc3ccc(NC(=O)Nc4ccc(F)cc4)cc3)c2cc1OC [Example 73, N-{4-[(6,7-Dimethoxy-4-quinazolinyl)oxy]-phenyl}-N′-(4-fluorophenyl)urea] | – | < 0.002 | 0.001 | – | 34
26 | COc1cc2nccc(Oc3cc(C)c(NC(=O)Nc4ccc(Br)c(C)n4)cc3C)c2cc1OC [Example 44, N-(5-Bromo-6-methyl-2-pyridyl)-N′-{4-[(6,7-dimethoxy-4-quinolyl)oxy]-2,5-dimethylphenyl}urea] | – | – | – | (−) (the change in karyomorphosis of cells did not take place at 10 μM) | –
